This data set is described as follows: Acute oral toxicity evaluation in rats. As to conditions: single oral dose 10 mg/kg, after 14 days, (absolute organ weight × 100%)/body weight. Format: in vivo, Wistar albino rats. Here is the method:
Healthy male rats (n = 24, three rats per group, body weight 180–200 g) were used for conducting an acute oral toxicity study. Animals were divided into the following groups: a control group that included rats that received a single dose of 1% DMSO and experimental groups that involved rats that received compounds 1–7 in the single dose of 10 mg/kg.
After oral administration of the aforementioned agents, rats were kept in single cages and monitored during 14 days. Food and water intake, as well as body weight, were measured daily. All the behavioral changes and any signs of toxicity were monitored daily during 2-week protocol (fur and skin, eyes, salivation, respiration, urination (color), faeces consistency, somatomotor activity, and other alterations in behavior pattern). After accomplishing 14 days, animals were sacrificed and organ weight (liver, kidney, stomach, and heart) was recorded. Relative organ weight was calculated as follows:(absolute organ weight × 100%)/body weight of rat on the day of sacrifice.(1)
As to `CCOc1ccc(NC(=S)NC(=O)[C@@H](C)c2ccc3cc(OC)ccc3c2)cc1` [Compound 3, (S)-N-((4-ethoxyphenyl)carbamothioyl)-2-(6-methoxynaphthalen-2-yl)propanamide], the “Relative organ weight, heart” value is 0.31 ± 0.03; the “Relative organ weight, kidney” value is reported as 0.32 ± 0.06; the “Relative organ weight, liver” value worked out at 2.85 ± 0.17; the “Relative organ weight, stomach” value is listed as 0.50 ± 0.05.
The like results for `COc1ccc2cc([C@H](C)C(=O)NC(=S)Nc3ccc(F)cc3)ccc2c1` [Compound 1, (S)-N-((4-fluorophenyl)carbamothioyl)-2-(6-methoxynaphthalen-2-yl)propanamide] were, in that order, 0.32 ± 0.02, 0.31 ± 0.03, 2.73 ± 0.24 and 0.54 ± 0.05.
The like results for `COc1ccc2cc([C@H](C)C(=O)NC(=S)Nc3ccc(C(C)=O)cc3)ccc2c1` [Compound 5, (S)-N-((4-acetylphenyl)carbamothioyl)-2-(6-methoxynaphthalen-2-yl)propanamide] were, in that order, 0.31 ± 0.03, 0.30 ± 0.03, 2.97 ± 0.33 and 0.53 ± 0.04.
Consider `COC(=O)[C@H](Cc1cn(C)c2ccccc12)NC(=S)NC(=O)[C@@H](C)c1ccc2cc(OC)ccc2c1` [Compound 7, Methyl-N^α-(((S)-2-(6-methoxynaphthalen-2-yl)propanoyl)carbamothioyl)-1-methyltryptophanate], for which the “Relative organ weight, heart” value was determined as 0.33 ± 0.03; the “Relative organ weight, kidney” value is given as 0.29 ± 0.03; the “Relative organ weight, liver” value is listed as 2.64 ± 0.46; the “Relative organ weight, stomach” value is on record as 0.50 ± 0.04.
The like results for `COc1ccc(NC(=S)NC(=O)[C@@H](C)c2ccc3cc(OC)ccc3c2)cc1` [Compound 2, (S)-2-(6-methoxynaphthalen-2-yl)-N-((4-methoxyphenyl)carbamothioyl)propanamide] were, in that order, 0.33 ± 0.04, 0.34 ± 0.04, 3.07 ± 0.38 and 0.57 ± 0.04.
Turning to `COc1cccc(NC(=S)NC(=O)[C@@H](C)c2ccc3cc(OC)ccc3c2)c1` [Compound 4, (S)-2-(6-methoxynaphthalen-2-yl)-N-((3-methoxyphenyl)carbamothioyl)propanamide], the “Relative organ weight, heart” value stood at 0.30 ± 0.03; the “Relative organ weight, kidney” value is on record as 0.33 ± 0.07; the “Relative organ weight, liver” value is reported as 2.45 ± 0.15; the “Relative organ weight, stomach” value is listed as 0.50 ± 0.05.
In the case of `CCOC(=O)C(Cc1ccccc1)NC(=S)NC(=O)C(C)c1ccc2cc(OC)ccc2c1` [Compound 6, Ethyl(((S)-2-(6-methoxynaphthalen-2-yl)propanoyl)carbamothioyl)-L-phenylalaninate], the “Relative organ weight, heart” value is 0.34 ± 0.02; the “Relative organ weight, kidney” value is recorded as 0.35 ± 0.05; the “Relative organ weight, liver” value is recorded as 3.01 ± 0.29; the “Relative organ weight, stomach” value is on record as 0.55 ± 0.03.

The values are drawn from paper PMC10222328 (Pharmaceuticals, 2023).
